Source: patent US20080271368A1, “METHOD OF PROMOTING PLANT GROWTH AND IMPROVING PLANT QUALITY AND GROWTH-PROMOTING AGENT AND QUALITY-IMPROVING AGENT TO BE USED IN THE METHOD” (priority 2006, published 2008)

Tested on: rice seedlings
Assay: Rice yield test
Format: in vivo
Settings: for Average yield: average of nine bunches
Description: A predetermined amount of chemicals was weighed and embedded into soil together with roots of rice seedlings when the seedlings are planted in a paddy field in early May. […] Nine bunches were planted per one test field. After that, usual wet-rice culture was carried out until harvesting in early October. The rice crop was dried and weighed to determine the yield. Good unhusked rice obtained by wind selection was used as the test sample.

O=P([O-])(O)O.O=P([O-])(O)O.[Ca+2] [Calcium dihydrogen phosphate]
Average yield (treated amount 1 g per 1 m^2, good unhusked rice): 196 g
Average yield (%) (treated amount 1 g per 1 m^2, untreated = 100): (90) %
Average yield (treated amount 10 g per 1 m^2, good unhusked rice): 230 g
Average yield (%) (treated amount 10 g per 1 m^2, untreated = 100): (105) %
